Measured values from patent US20260250318A1, “COMPOSITIONS AND METHODS FOR CROSSING THE BLOOD BRAIN BARRIER” (VOYAGER THERAPEUTICS, INC., priority 2022, published 2026).

tested on: brain; assay: Maturation of TTM-001 capsid, NGS enrichment in brain of CD-1 Outbred mice; type: in vivo; conditions: NGS fold-enrichment of TTM-001 matured AAV capsid variants in the brain of CD-1 Outbred mice; intravenous 1.0×10^12 VG/dose; 14 days in life; RNA; relative to non-matured TTM-001 control
Excerpt: This Example describes maturation of the TTM-001 (SEQ ID NO: 981 (amino acid) and 983 (DNA), comprising SEQ ID NO: 941) and TTM-002 (SEQ ID NO: 982 (amino acid) and 984 (DNA), comprising SEQ ID NO: 2) capsid variants to further enhance their transduction and biodistribution in the central nervous system and evolve the AAV capsid variants to provide further cross-species compatibility. Two approaches were used to mature the TTM-001 and TTM-002 capsid sequences in order to randomize and mutate within and around the peptide insert comprised within loop IV of the capsid variant. […] In the first maturation approach, sets of three contiguous amino acids were randomized across the mutagenesis region in the TTM-001 and TTM-002 sequences, which spanned from position 450 to position 466, numbered according to SEQ ID NO: 981 and 982. In the second maturation approach, mutagenic primers were used to introduce point mutations at a low frequency, scattered across the mutagenesis region in the TTM-001 and TTM-002 sequences ranging from position 449 to position 466, numbered according to SEQ ID NO: 981 and 982. AAV capsid variants arising from each maturation approach for TTM-001 were pooled together and AAV capsid variants arising from each maturation approach for TTM-002 were also pooled together, for subsequent testing and characterization in mice.
The library of pooled matured AAV capsid variants generated from TTM-001 or library of pooled matured AAV capsid variants generated from the TTM-002 matured AAV capsid variant each were intravenously injected into the tail vein of three female CD-1 Outbred mice (Charles River) at a dose of 1.0×10^12 VG/dose. After 14-days in life, the brains of the mice were isolated and RNA was extracted. Following RNA recovery and RT-PCR amplification, a systematic NGS enrichment analysis was performed to calculate the fold enrichment ratio relative to the corresponding TTM-001 or TTM-002 control, and the peptides comprised within the variants were identified. The data for the TTM-001 matured capsid variants is provided in Table 13 and the data for the TTM-002 matured capsid variants is provided in Table 14.

Sequence	Fold enrichment over TTM-001
KTINGSGSPHSFITNQQT	2.868 fold
KTINGSGSPHSFLLNQQT	2.341 fold
KTINGSGSPHSFLRNQQT	3.384 fold
KTINGSGSPHSFLVNQQT	2.624 fold
KTINGSGSPHSFRLNQQT	2.158 fold
KTINGSGSPHSFVLNQQT	3.382 fold
KTINGSGSPHSFVRNQQT	2.110 fold
KTINGSGSPHSFVVNQQT	2.335 fold
KTINGSGSPHSGLWNQQT	2.350 fold
KTINGSGSPHSHMENQQT	2.259 fold
KTINGSGSPHSHWQNQQT	2.676 fold
KTINGSGSPHSIFSNQQT	2.110 fold
KTINGSGSPHSIWQNQQT	5.883 fold
KTINGSGSPHSKAARTQT	2.266 fold
KTINGSGSPHSKACASQT	2.775 fold
KTINGSGSPHSKACPLQT	2.285 fold
KTINGSGSPHSKACSAQT	2.754 fold
KTINGSGSPHSKAFARQT	3.082 fold
KTINGSGSPHSKAFPRQT	3.220 fold
KTINGSGSPHSKAFRLQT	4.849 fold
KTINGSGSPHSKAFRPQT	2.499 fold
KTINGSGSPHSKAFTRQT	2.518 fold

Sequence	Fold enrichment over TTM-001
KTINGSGSPHSKAGCGQT	5.341 fold
KTINGSGSPHSKAGRGQT	2.058 fold
KTINGSGSPHSKAHRLQT	2.603 fold
KTINGSGSPHSKAHRQQT	2.117 fold
KTINGSGSPHSKAHRSQT	2.819 fold
KTINGSGSPHSKAKHLQT	2.870 fold
KTINGSGSPHSKAKLRQT	3.976 fold
KTINGSGSPHSKAKSRQT	2.739 fold
KTINGSGSPHSKALCRQT	2.048 fold
KTINGSGSPHSKALKRQT	2.836 fold
KTINGSGSPHSKALRFQT	3.894 fold
KTINGSGSPHSKALRRQT	4.330 fold
KTINGSGSPHSKALRSQT	2.648 fold
KTINGSGSPHSKALRYQT	3.076 fold
KTINGSGSPHSKALWRQT	2.015 fold
KTINGSGSPHSKANKSQT	2.056 fold
KTINGSGSPHSKANRMQT	2.508 fold
KTINGSGSPHSKAPNHLT	2.324 fold
KTINGSGSPHSKAQAFRT	2.022 fold
KTINGSGSPHSKAQANRT	2.255 fold
KTINGSGSPHSKAQASKT	2.546 fold
KTINGSGSPHSKAQATRT	2.019 fold

Sequence	Fold enrichment over TTM-001
KTINGSGSPHSKAQCLFT	2.421 fold
KTINGSGSPHSKAQCRLT	2.304 fold
KTINGSGSPHSKAQCYVT	2.261 fold
KTINGSGSPHSKAQEELT	2.162 fold
KTINGSGSPHSKAQFLRT	2.156 fold
KTINGSGSPHSKAQFRVT	2.231 fold
KTINGSGSPHSKAQFSLT	2.000 fold
KTINGSGSPHSKAQFSRT	2.847 fold
KTINGSGSPHSKAQFSVT	2.015 fold
KTINGSGSPHSKAQFTLT	2.277 fold
KTINGSGSPHSKAQFVLT	2.006 fold
KTINGSGSPHSKAQFVRT	2.596 fold
KTINGSGSPHSKAQFWVT	2.050 fold
KTINGSGSPHSKAQGFRT	2.279 fold
KTINGSGSPHSKAQGVKT	2.002 fold
KTINGSGSPHSKAQGVRT	2.188 fold
KTINGSGSPHSKAQHLRT	2.741 fold
KTINGSGSPHSKAQHSRT	3.227 fold
KTINGSGSPHSKAQILVT	2.009 fold
KTINGSGSPHSKAQIRLT	3.279 fold
KTINGSGSPHSKAQITLT	3.177 fold
KTINGSGSPHSKAQKRLT	3.872 fold

Sequence	Fold enrichment over TTM-001
KTINGSGSPHSKAQKRST	2.151 fold
KTINGSGSPHSKAQLAKT	2.238 fold
KTINGSGSPHSKAQLFKT	2.385 fold
KTINGSGSPHSKAQLGKT	2.000 fold
KTINGSGSPHSKAQLGRT	2.069 fold
KTINGSGSPHSKAQLHRT	2.618 fold
KTINGSGSPHSKAQLILT	2.358 fold
KTINGSGSPHSKAQLIVT	2.235 fold
KTINGSGSPHSKAQLKLT	2.125 fold
KTINGSGSPHSKAQLLKT	2.985 fold
KTINGSGSPHSKAQLPWT	2.169 fold
KTINGSGSPHSKAQLRIT	2.179 fold
KTINGSGSPHSKAQLRKT	2.689 fold
KTINGSGSPHSKAQLRRT	3.825 fold
KTINGSGSPHSKAQLSIT	2.784 fold
KTINGSGSPHSKAQLSKT	2.035 fold
KTINGSGSPHSKAQLTLT	2.641 fold
KTINGSGSPHSKAQLTVT	4.026 fold
KTINGSGSPHSKAQLVKT	2.376 fold
KTINGSGSPHSKAQLVLT	2.508 fold
KTINGSGSPHSKAQLVVT	3.654 fold
KTINGSGSPHSKAQLYRT	4.108 fold

Sequence	Fold enrichment over TTM-001
KTINGSGSPHSKAQMKCT	2.039 fold
KTINGSGSPHSKAQMVRT	2.426 fold
KTINGSGSPHSKAQNAKL	2.486 fold
KTINGSGSPHSKAQNAKS	2.009 fold
KTINGSGSPHSKAQNARH	2.127 fold
KTINGSGSPHSKAQNEVH	2.272 fold
KTINGSGSPHSKAQNKRS	2.214 fold
KTINGSGSPHSKAQNLRR	2.231 fold
KTINGSGSPHSKAQNRIR	2.039 fold
KTINGSGSPHSKAQNRKL	2.084 fold
KTINGSGSPHSKAQNRMR	2.804 fold
KTINGSGSPHSKAQNRRS	2.613 fold
KTINGSGSPHSKAQNSRR	3.168 fold
KTINGSGSPHSKAQNTRR	2.013 fold
KTINGSGSPHSKAQNVKL	2.024 fold
KTINGSGSPHSKAQNWRT	2.125 fold
KTINGSGSPHSKAQNYRA	2.039 fold
KTINGSGSPHSKAQPSKT	2.339 fold
